ChEMBL document CHEMBL1130964, “Naphthoquinone analogs as inactivators of cdc25 phosphatase” (1998)

What was measured:
Type in all cases: functional
SK-HEP1 [1] = test: The compound was evaluated for the percent cell cycle fraction when human hepatoma SK hep-1 cells were treated with the compound for 0 hr at a concentration of 4 uM in the G1 phase of cell cycle
SK-HEP1 [2] = test: The compound was evaluated for the percent cell cycle fraction when human hepatoma SK hep-1 cells were treated with the compound for 0 hr at a concentration of 4 uM in the G2/M phase of cell cycle
SK-HEP1 [3] = test: The compound was evaluated for the percent cell cycle fraction when human hepatoma SK hep-1 cells were treated with the compound for 12 hours at a concentration of 4 uM in the G1 phase of cell cycle
SK-HEP1 [4] = test: The compound was evaluated for the percent cell cycle fraction when human hepatoma SK hep-1 cells were treated with the compound for 12 hours at a concentration of 4 uM in the G2/M phase of cell cycle
Homo sapiens [5] = species on record: Homo sapiens; test: The compound was evaluated for the percent cell cycle fraction when human hepatoma SK hep-1 cells were treated with the compound for 6 hours at a concentration of 4 uM in the G2/M phase of cell cycle
SK-HEP1 [6] = test: The compound was evaluated for the percent cell cycle fraction when human hepatoma SK hep-1 cells were treated with the compound for 24 hours at a concentration of 4 uM in the G2/M phase of cell cycle
SK-HEP1 [7] = test: The compound was evaluated for the percent cell cycle fraction when human hepatoma SK hep-1 cells were treated with the compound for 24 hours at a concentration of 4 uM in the S phase of cell cycle
SK-HEP1 [8] = test: The compound was evaluated for the percent cell cycle fraction when human hepatoma SK hep-1 cells were treated with the compound for 6 hours at a concentration of 4 uM in the S phase of cell cycle
Homo sapiens [9] = species on record: Homo sapiens; test: The compound was evaluated for the percent cell cycle fraction when human hepatoma SK hep-1 cells were treated with the compound for 0 hr at a concentration of 4 uM in the S phase of cell cycle
Homo sapiens [10] = species on record: Homo sapiens; test: The compound was evaluated for the percent cell cycle fraction when human hepatoma SK hep-1 cells were treated with the compound for 12 hours at a concentration of 4 uM in the S phase of cell cycle
Homo sapiens [11] = species on record: Homo sapiens; test: The compound was evaluated for the percent cell cycle fraction when human hepatoma SK hep-1 cells were treated with the compound for 24 hours at a concentration of 4 uM in the G1 phase of cell cycle
Homo sapiens [12] = species on record: Homo sapiens; test: The compound was evaluated for the percent cell cycle fraction when human hepatoma SK hep-1 cells were treated with the compound for 6 hours at a concentration of 4 uM in the G1 phase of cell cycle

O=C1C=CC(=O)c2c(O)c(Cl)c(Cl)c(O)c21
Cell cycle fraction (SK-HEP1 [1]): 48% | Cell cycle fraction (SK-HEP1 [2]): 31% | Cell cycle fraction (SK-HEP1 [3]): 70% | Cell cycle fraction (SK-HEP1 [4]): 16% | Cell cycle fraction (Homo sapiens [5]): 26% | Cell cycle fraction (SK-HEP1 [6]): 16% | Cell cycle fraction (SK-HEP1 [7]): 13% | Cell cycle fraction (SK-HEP1 [8]): 20% | Cell cycle fraction (Homo sapiens [9]): 21% | Cell cycle fraction (Homo sapiens [10]): 14% | Cell cycle fraction (Homo sapiens [11]): 71% | Cell cycle fraction (Homo sapiens [12]): 54%
